In ChEMBL document CHEMBL4392870, “Isolation and Biological Activity of 8- Epitetrodotoxin and the Structure of a Possible Biosynthetic Shunt Product of Tetrodotoxin, Cep-226A, from the Newt Cynops ensicauda popei” (J Nat Prod, 2019):

Legend:
[1] = species on record: Rana temporaria
[2] = Inhibition of NaV in mouse Neuro2a cells assessed as suppression of ouabain/veratridine-induced reduction in cell viability measured after 20 hrs by WST8 assay
[3] = Inhibition of NaV in mouse Neuro2a cells assessed as suppression of ouabain/veratridine-induced reduction in cell viability measured after 24 hrs by WST8 assay; type: cell-based

| SMILES | ED50 [1] | EC50 [2] | EC50 [3] |
| --- | --- | --- | --- |
| NC1=N[C@H](O)[C@H]2[C@H]3O[C@]4(O)O[C@@H]([C@@H](O)[C@@]2(N1)[C@@H]4O)[C@]3(O)CO [TETRODOTOXIN] | 4.1 nM | 1.9 nM | – |
| NC1=N[C@H](O)[C@H]2[C@H]3O[C@]4(O)O[C@@H]([C@@H](O)[C@@]2(N1)[C@@H]4O)[C@@]3(O)CO | 96 nM | 33 nM | – |
| NC1=N[C@H](O)[C@H]2[C@H]3O[C@]4(O)O[C@@H]([C@H](O)[C@@]2(N1)[C@@H]4O)[C@]3(O)CO | – | 110 nM | – |
| NC1=N[C@H](O)[C@H]2[C@H]3O[C@]4(O)O[C@@H](C[C@@]2(N1)[C@@H]4O)[C@]3(O)CO | – | – | 250 nM |
